Experimental data from the NIST ThermoML archive (doi:10.1016/j.jct.2012.03.031).
Several values for one entry are separate records, joined by “and”; a condition that tells them apart may be missing. Equal entries are not always repeated. Numbers after ± are expanded uncertainties.

Assay: molar heat capacity at constant pressure
Details: 101.33 kPa

CCCCc1ccc(C(=O)Oc2ccc(C#N)c(F)c2)cc1 [4-cyano-3-fluorophenyl 4-butylbenzoate]
Details | molar heat capacity at constant pressure
61.92 K, Crystal 1, Small (less than 1 g) adiabatic calorimetry | 106.31 ± 0.83 J/K/mol
63.2 K, Crystal 1, Small (less than 1 g) adiabatic calorimetry | 108.1 ± 0.85 J/K/mol
63.41 K, Crystal 1, Small (less than 1 g) adiabatic calorimetry | 108.62 ± 0.85 J/K/mol
63.57 K, Crystal 2, Small (less than 1 g) adiabatic calorimetry | 113.15 ± 0.88 J/K/mol
64.91 K, Crystal 1, Small (less than 1 g) adiabatic calorimetry | 110.74 ± 0.86 J/K/mol
65.24 K, Crystal 2, Small (less than 1 g) adiabatic calorimetry | 115.68 ± 0.89 J/K/mol
65.3 K, Crystal 1, Small (less than 1 g) adiabatic calorimetry | 111.15 ± 0.86 J/K/mol
66.41 K, Crystal 1, Small (less than 1 g) adiabatic calorimetry | 112.9 ± 0.87 J/K/mol
66.93 K, Crystal 2, Small (less than 1 g) adiabatic calorimetry | 118.1 ± 0.91 J/K/mol
67.38 K, Crystal 1, Small (less than 1 g) adiabatic calorimetry | 114.12 ± 0.88 J/K/mol
67.91 K, Crystal 1, Small (less than 1 g) adiabatic calorimetry | 115.02 ± 0.89 J/K/mol
68.62 K, Crystal 2, Small (less than 1 g) adiabatic calorimetry | 120.58 ± 0.92 J/K/mol
69.41 K, Crystal 1, Small (less than 1 g) adiabatic calorimetry | 117.19 ± 0.9 J/K/mol
69.46 K, Crystal 1, Small (less than 1 g) adiabatic calorimetry | 117 ± 0.9 J/K/mol
70 K, Crystal 1, Vacuum adiabatic calorimetry | 117.76 ± 0.78 J/K/mol
70 K, Crystal 2, Vacuum adiabatic calorimetry | 122.57 ± 0.81 J/K/mol
70.32 K, Crystal 2, Small (less than 1 g) adiabatic calorimetry | 123.03 ± 0.94 J/K/mol
70.92 K, Crystal 1, Small (less than 1 g) adiabatic calorimetry | 119.27 ± 0.91 J/K/mol
71.53 K, Crystal 1, Small (less than 1 g) adiabatic calorimetry | 119.9 ± 0.91 J/K/mol
72.11 K, Crystal 2, Small (less than 1 g) adiabatic calorimetry | 125.5 ± 0.95 J/K/mol
72.44 K, Crystal 1, Small (less than 1 g) adiabatic calorimetry | 121.32 ± 0.92 J/K/mol
73.59 K, Crystal 1, Small (less than 1 g) adiabatic calorimetry | 122.75 ± 0.93 J/K/mol
73.96 K, Crystal 1, Small (less than 1 g) adiabatic calorimetry | 123.47 ± 0.94 J/K/mol
74.05 K, Crystal 2, Small (less than 1 g) adiabatic calorimetry | 128.27 ± 0.97 J/K/mol
75.49 K, Crystal 1, Small (less than 1 g) adiabatic calorimetry | 125.48 ± 0.95 J/K/mol
75.66 K, Crystal 1, Small (less than 1 g) adiabatic calorimetry | 125.55 ± 0.95 J/K/mol
76.08 K, Crystal 2, Small (less than 1 g) adiabatic calorimetry | 131.11 ± 0.99 J/K/mol
77.02 K, Crystal 1, Small (less than 1 g) adiabatic calorimetry | 127.52 ± 0.96 J/K/mol
77.72 K, Crystal 1, Small (less than 1 g) adiabatic calorimetry | 128.25 ± 0.97 J/K/mol
78.1 K, Crystal 2, Small (less than 1 g) adiabatic calorimetry | 133.74 ± 1 J/K/mol
78.56 K, Crystal 1, Small (less than 1 g) adiabatic calorimetry | 129.55 ± 0.97 J/K/mol
79.79 K, Crystal 1, Small (less than 1 g) adiabatic calorimetry | 130.94 ± 0.98 J/K/mol
80 K, Crystal 1, Vacuum adiabatic calorimetry | 131.22 ± 0.86 J/K/mol
80 K, Crystal 2, Vacuum adiabatic calorimetry | 136.34 ± 0.89 J/K/mol
80.1 K, Crystal 1, Small (less than 1 g) adiabatic calorimetry | 131.58 ± 0.99 J/K/mol
80.14 K, Crystal 2, Small (less than 1 g) adiabatic calorimetry | 136.53 ± 1 J/K/mol
81.65 K, Crystal 1, Small (less than 1 g) adiabatic calorimetry | 133.56 ± 1 J/K/mol
81.86 K, Crystal 1, Small (less than 1 g) adiabatic calorimetry | 133.65 ± 1 J/K/mol
82.17 K, Crystal 2, Small (less than 1 g) adiabatic calorimetry | 139.24 ± 1 J/K/mol
83.21 K, Crystal 1, Small (less than 1 g) adiabatic calorimetry | 135.55 ± 1 J/K/mol
83.93 K, Crystal 1, Small (less than 1 g) adiabatic calorimetry | 136.28 ± 1 J/K/mol
84.22 K, Crystal 2, Small (less than 1 g) adiabatic calorimetry | 141.95 ± 1.1 J/K/mol
84.77 K, Crystal 1, Small (less than 1 g) adiabatic calorimetry | 137.59 ± 1 J/K/mol
86 K, Crystal 1, Small (less than 1 g) adiabatic calorimetry | 138.9 ± 1 J/K/mol
86.27 K, Crystal 2, Small (less than 1 g) adiabatic calorimetry | 144.59 ± 1.1 J/K/mol
86.34 K, Crystal 1, Small (less than 1 g) adiabatic calorimetry | 139.51 ± 1 J/K/mol
87.92 K, Crystal 1, Small (less than 1 g) adiabatic calorimetry | 141.49 ± 1.1 J/K/mol
88.19 K, Crystal 1, Small (less than 1 g) adiabatic calorimetry | 141.58 ± 1.1 J/K/mol
88.32 K, Crystal 2, Small (less than 1 g) adiabatic calorimetry | 147.21 ± 1.1 J/K/mol
89.5 K, Crystal 1, Small (less than 1 g) adiabatic calorimetry | 143.41 ± 1.1 J/K/mol
90 K, Crystal 1, Vacuum adiabatic calorimetry | 143.78 ± 0.93 J/K/mol
90 K, Crystal 2, Vacuum adiabatic calorimetry | 149.41 ± 0.96 J/K/mol
90.38 K, Crystal 2, Small (less than 1 g) adiabatic calorimetry | 149.91 ± 1.1 J/K/mol
90.49 K, Crystal 1, Small (less than 1 g) adiabatic calorimetry | 144.38 ± 1.1 J/K/mol
91.1 K, Crystal 1, Small (less than 1 g) adiabatic calorimetry | 145.38 ± 1.1 J/K/mol
92.46 K, Crystal 2, Small (less than 1 g) adiabatic calorimetry | 152.54 ± 1.1 J/K/mol
92.69 K, Crystal 1, Small (less than 1 g) adiabatic calorimetry | 147.26 ± 1.1 J/K/mol
92.79 K, Crystal 1, Small (less than 1 g) adiabatic calorimetry | 147.14 ± 1.1 J/K/mol
94.3 K, Crystal 1, Small (less than 1 g) adiabatic calorimetry | 149.22 ± 1.1 J/K/mol
94.53 K, Crystal 2, Small (less than 1 g) adiabatic calorimetry | 155.21 ± 1.1 J/K/mol
95.09 K, Crystal 1, Small (less than 1 g) adiabatic calorimetry | 149.9 ± 1.1 J/K/mol
95.91 K, Crystal 1, Small (less than 1 g) adiabatic calorimetry | 151.12 ± 1.1 J/K/mol
96.62 K, Crystal 2, Small (less than 1 g) adiabatic calorimetry | 157.81 ± 1.1 J/K/mol
97.38 K, Crystal 1, Small (less than 1 g) adiabatic calorimetry | 152.62 ± 1.1 J/K/mol
97.53 K, Crystal 1, Small (less than 1 g) adiabatic calorimetry | 153.02 ± 1.1 J/K/mol
98.72 K, Crystal 2, Small (less than 1 g) adiabatic calorimetry | 160.47 ± 1.2 J/K/mol
99.17 K, Crystal 1, Small (less than 1 g) adiabatic calorimetry | 154.93 ± 1.1 J/K/mol
99.68 K, Crystal 1, Small (less than 1 g) adiabatic calorimetry | 155.3 ± 1.1 J/K/mol
100 K, Crystal 1, Vacuum adiabatic calorimetry | 155.66 ± 0.99 J/K/mol
100 K, Crystal 2, Vacuum adiabatic calorimetry | 162.05 ± 1 J/K/mol
100.8 K, Crystal 1, Small (less than 1 g) adiabatic calorimetry | 156.84 ± 1.1 J/K/mol
100.83 K, Crystal 2, Small (less than 1 g) adiabatic calorimetry | 163.07 ± 1.2 J/K/mol
101.98 K, Crystal 1, Small (less than 1 g) adiabatic calorimetry | 157.93 ± 1.1 J/K/mol
102.45 K, Crystal 1, Small (less than 1 g) adiabatic calorimetry | 158.74 ± 1.1 J/K/mol
102.94 K, Crystal 2, Small (less than 1 g) adiabatic calorimetry | 165.76 ± 1.2 J/K/mol
104.1 K, Crystal 1, Small (less than 1 g) adiabatic calorimetry | 160.69 ± 1.2 J/K/mol
104.29 K, Crystal 1, Small (less than 1 g) adiabatic calorimetry | 160.64 ± 1.2 J/K/mol
105.07 K, Crystal 2, Small (less than 1 g) adiabatic calorimetry | 168.36 ± 1.2 J/K/mol
105.76 K, Crystal 1, Small (less than 1 g) adiabatic calorimetry | 162.57 ± 1.2 J/K/mol
106.6 K, Crystal 1, Small (less than 1 g) adiabatic calorimetry | 163.27 ± 1.2 J/K/mol
107.21 K, Crystal 2, Small (less than 1 g) adiabatic calorimetry | 170.99 ± 1.2 J/K/mol
107.43 K, Crystal 1, Small (less than 1 g) adiabatic calorimetry | 164.48 ± 1.2 J/K/mol
108.92 K, Crystal 1, Small (less than 1 g) adiabatic calorimetry | 165.88 ± 1.2 J/K/mol
109.11 K, Crystal 1, Small (less than 1 g) adiabatic calorimetry | 166.36 ± 1.2 J/K/mol
109.36 K, Crystal 2, Small (less than 1 g) adiabatic calorimetry | 173.6 ± 1.2 J/K/mol
110 K, Crystal 1, Vacuum adiabatic calorimetry | 167.09 ± 1.1 J/K/mol
110 K, Crystal 2, Vacuum adiabatic calorimetry | 174.41 ± 1.1 J/K/mol
110.8 K, Crystal 1, Small (less than 1 g) adiabatic calorimetry | 168.33 ± 1.2 J/K/mol
111.24 K, Crystal 1, Small (less than 1 g) adiabatic calorimetry | 168.49 ± 1.2 J/K/mol
111.51 K, Crystal 2, Small (less than 1 g) adiabatic calorimetry | 176.31 ± 1.3 J/K/mol
112.5 K, Crystal 1, Small (less than 1 g) adiabatic calorimetry | 170.17 ± 1.2 J/K/mol
113.57 K, Crystal 1, Small (less than 1 g) adiabatic calorimetry | 171.15 ± 1.2 J/K/mol
113.68 K, Crystal 2, Small (less than 1 g) adiabatic calorimetry | 178.98 ± 1.3 J/K/mol
114.2 K, Crystal 1, Small (less than 1 g) adiabatic calorimetry | 172.16 ± 1.2 J/K/mol
115.87 K, Crystal 2, Small (less than 1 g) adiabatic calorimetry | 181.77 ± 1.3 J/K/mol
115.91 K, Crystal 1, Small (less than 1 g) adiabatic calorimetry | 173.74 ± 1.2 J/K/mol and 174.07 ± 1.2 J/K/mol
117.64 K, Crystal 1, Small (less than 1 g) adiabatic calorimetry | 175.95 ± 1.2 J/K/mol
118.06 K, Crystal 2, Small (less than 1 g) adiabatic calorimetry | 184.44 ± 1.3 J/K/mol
118.26 K, Crystal 1, Small (less than 1 g) adiabatic calorimetry | 176.37 ± 1.3 J/K/mol
119.36 K, Crystal 1, Small (less than 1 g) adiabatic calorimetry | 177.93 ± 1.3 J/K/mol
120 K, Crystal 1, Vacuum adiabatic calorimetry | 178.29 ± 1.1 J/K/mol
120 K, Crystal 2, Vacuum adiabatic calorimetry | 186.87 ± 1.2 J/K/mol
120.27 K, Crystal 2, Small (less than 1 g) adiabatic calorimetry | 187.2 ± 1.3 J/K/mol
120.61 K, Crystal 1, Small (less than 1 g) adiabatic calorimetry | 178.97 ± 1.3 J/K/mol
121.1 K, Crystal 1, Small (less than 1 g) adiabatic calorimetry | 179.82 ± 1.3 J/K/mol
122.48 K, Crystal 2, Small (less than 1 g) adiabatic calorimetry | 189.96 ± 1.4 J/K/mol
122.85 K, Crystal 1, Small (less than 1 g) adiabatic calorimetry | 181.85 ± 1.3 J/K/mol
122.98 K, Crystal 1, Small (less than 1 g) adiabatic calorimetry | 181.61 ± 1.3 J/K/mol
124.61 K, Crystal 1, Small (less than 1 g) adiabatic calorimetry | 182.88 ± 1.3 J/K/mol
124.71 K, Crystal 2, Small (less than 1 g) adiabatic calorimetry | 192.76 ± 1.4 J/K/mol
125.35 K, Crystal 1, Small (less than 1 g) adiabatic calorimetry | 184.23 ± 1.3 J/K/mol
126.37 K, Crystal 1, Small (less than 1 g) adiabatic calorimetry | 185.75 ± 1.3 J/K/mol
126.95 K, Crystal 2, Small (less than 1 g) adiabatic calorimetry | 195.55 ± 1.4 J/K/mol
127.73 K, Crystal 1, Small (less than 1 g) adiabatic calorimetry | 186.92 ± 1.3 J/K/mol
128.14 K, Crystal 1, Small (less than 1 g) adiabatic calorimetry | 187.6 ± 1.3 J/K/mol
129.2 K, Crystal 2, Small (less than 1 g) adiabatic calorimetry | 198.34 ± 1.4 J/K/mol
129.93 K, Crystal 1, Small (less than 1 g) adiabatic calorimetry | 189.59 ± 1.3 J/K/mol
130 K, Crystal 1, Vacuum adiabatic calorimetry | 189.39 ± 1.2 J/K/mol
130 K, Crystal 2, Vacuum adiabatic calorimetry | 199.38 ± 1.3 J/K/mol
130.12 K, Crystal 1, Small (less than 1 g) adiabatic calorimetry | 189.53 ± 1.3 J/K/mol
131.47 K, Crystal 2, Small (less than 1 g) adiabatic calorimetry | 201.3 ± 1.4 J/K/mol
131.72 K, Crystal 1, Small (less than 1 g) adiabatic calorimetry | 191.62 ± 1.4 J/K/mol
132.53 K, Crystal 1, Small (less than 1 g) adiabatic calorimetry | 192.14 ± 1.4 J/K/mol
133.51 K, Crystal 1, Small (less than 1 g) adiabatic calorimetry | 193.32 ± 1.4 J/K/mol
133.74 K, Crystal 2, Small (less than 1 g) adiabatic calorimetry | 204.25 ± 1.4 J/K/mol
134.94 K, Crystal 1, Small (less than 1 g) adiabatic calorimetry | 194.79 ± 1.4 J/K/mol
135.4 K, Crystal 1, Small (less than 1 g) adiabatic calorimetry | 195.42 ± 1.4 J/K/mol
136.03 K, Crystal 2, Small (less than 1 g) adiabatic calorimetry | 207.21 ± 1.5 J/K/mol
137.37 K, Crystal 1, Small (less than 1 g) adiabatic calorimetry | 197.39 ± 1.4 J/K/mol and 197.54 ± 1.4 J/K/mol
138.33 K, Crystal 2, Small (less than 1 g) adiabatic calorimetry | 210.2 ± 1.5 J/K/mol
139.32 K, Crystal 1, Small (less than 1 g) adiabatic calorimetry | 199.71 ± 1.4 J/K/mol
139.8 K, Crystal 1, Small (less than 1 g) adiabatic calorimetry | 200.05 ± 1.4 J/K/mol
140 K, Crystal 1, Vacuum adiabatic calorimetry | 200.27 ± 1.2 J/K/mol
140 K, Crystal 2, Vacuum adiabatic calorimetry | 212.43 ± 1.3 J/K/mol
140.64 K, Crystal 2, Small (less than 1 g) adiabatic calorimetry | 213.3 ± 1.5 J/K/mol
